ChEMBL document CHEMBL1151300, “Studies on Aristolochia III. Isolation and biological evaluation of constituents of Aristolochia indica roots for fertility-regulating activity” (J Nat Prod, 1984)
The source made the active and inactive calls. The rule behind the calls is not given here.

Legend:
[1] = test system: Rattus norvegicus; assay: Antifertility effect in Sprague-Dawley rat assessed as number of pregnant animals at 40 mg/kg, po administered postcoitally for 1 to 6 days; assay type: functional, organism-based; design: dose 40 mg/kg
[2] = test system: Rattus norvegicus; assay: Antifertility effect in Sprague-Dawley rat assessed as number of pregnant animals at 2 mg/kg administered postcoitally for 1 to 10 days; assay type: functional, organism-based; design: dose 2 mg/kg
[3] = test system: Mus musculus; assay: Antifertility effect in CD1 mouse assessed as number of pregnant animals at 100 mg/kg, po administered postcoitally for 6 days; assay type: functional, organism-based; design: dose 100 mg/kg
[4] = test system: Mus musculus; assay: Antifertility effect in CD1 mouse assessed as number of pregnant animals at 50 mg/kg, po administered postcoitally for 6 days; assay type: functional, organism-based; design: dose 50 mg/kg
[5] = test system: Rattus norvegicus; assay: Antifertility effect in Sprague-Dawley rat assessed as number of pregnant animals at 58 mg/kg, po administered postcoitally for 1 to 6 days; assay type: functional, organism-based; design: dose 58 mg/kg
[6] = test system: Rattus norvegicus; assay: Antifertility effect in Sprague-Dawley rat assessed as number of pregnant animals at 10 mg/kg administered postcoitally for 1 to 10 days; assay type: functional, organism-based; design: dose 10 mg/kg
[7] = test system: Syrian golden hamster; assay: Toxicity in golden syrian hamster at 25 mg/kg; assay type: organism-based, Mesocricetus auratus; design: dose 25 mg/kg; details: in vivo
[8] = test system: Rattus norvegicus; assay: Toxicity in Sprague-Dawley rat at 40 mg/kg; assay type: organism-based; design: dose 40 mg/kg; details: in vivo
[9] = test system: Rattus norvegicus; assay: Antifertility effect in Sprague-Dawley rat assessed as number of pregnant animals at 40 mg/kg, po administered postcoitally for 1 to 10 days; assay type: functional, organism-based; design: dose 40 mg/kg

`COc1cccc2c1ccc1c(C(=O)O)cc3c(c12)OCO3` was tested, and the Activity [1] was “inactive” and the Activity [2] was “inactive”.
With `C[C@@H]1CCC[C@]23C[C@@H](CC[C@@]12C)[C@@](C)(O)C3` the Activity [3] was “inactive”.
For `COC(=O)c1cc2c(c3c1ccc1c(OC)cccc13)OCO2`, the Activity [4] was “inactive”.
With `O=C1OC[C@H](Cc2ccc3c(c2)OCO3)/C1=C\c1ccc2c(c1)OCO2` the Activity [5] was “inactive”.
In the case of `COc1cccc2c1cc([N+](=O)[O-])c1c(C(=O)O)cc3c(c12)OCO3` [ARISTOLOCHIC ACID], the Activity [6] is reported as “inactive”, the Activity [7] is reported as “Active” and the Activity [8] is reported as “Active”. For the same molecule, the Activity [9] was “Active”.
